Here are results for one compound from article PMC9367672, “In vitro differences in toddalolactone metabolism in various species and its effect on cytochrome P450 expression” (Pharmaceutical Biology, 2022).

Series [1] can be described thus: Metabolic stability assessment in mini pig liver microsomes. It counts as in vitro ADME. The following applies: pH 7.4, PLMs, toddalolactone 20 μM, 0-90 min. As to the method:
(§1) The CYP reaction system (200 μL) consisted of 0.1 M potassium phosphate buffer (pH 7.4), an NADPH-generating system (1 mM NADPH, 10 mM G-6-P, 1 unit/mL G-6-PD, 4 mM MgCl2), and liver microsomes or recombinant human microsomes (supersomes). Each of the in vitro enzymatic assays using liver microsomes was linear with respect to incubation time and amount of protein. After a pre-incubation at 37 °C for 3 min, the reactions were initiated by adding NADP^+. After incubating for 60 min, the reactions were quenched by adding 200 μL of ice-cold acetonitrile. Samples were centrifuged at 18,000 g for 15 min at 4 °C and 10 μL of supernatant was analyzed using an HPLC system. […]
(§2) In the UGT reaction system, liver microsomes were incubated in 200 μL of the reaction system containing 4 mM UDPGA, 5 mM MgCl2, 20 µg/mL alamethicin, and 50 mM Tris-HCl buffer (pH 7.4). […] After centrifugation at 18,000 g for 15 min, 10 μL of the supernatant was analyzed by HPLC.
(§3) Toddalolactone (20 μM) was incubated with different liver microsomes, including HLMs, DLMs, PLMs, MLMs, RAMs, RLMs or MIMs in oxidative metabolism and glucuronidation reaction systems. […] The mixtures were centrifuged at 18,000 g for 15 min at 4 °C and then 10 μL of the supernatant was analyzed by HPLC. […]
(§4) The peak areas of toddalolactone and its metabolites were detected using a HPLC system (Shimadzu, Kyoto, Japan). […]

Series [2] is described as follows: Metabolic stability assessment in monkey liver microsomes. Particulars: pH 7.4, MLMs, toddalolactone 20 μM, 0-90 min. The class given is in vitro ADME. The protocol:
as §1, §2, §3, §4
On the technique in general: Liver microsomes are a subcellular fraction often used to study metabolism.

In series [3] the test system is CYP3A5. Description: Western blot of CYP3A5 protein expression in HepG2 cells. The following applies: 0, 10 and 50 μM, 24 h. The class given is cell-based. As to the method: Hep G2 cells were seeded into 100 mm Petri dishes and treated with different concentrations of toddalolactone (0, 10 and 50 µmol/L) for 24 h. Total protein was extracted using RIPA lysis buffer containing proteinase inhibitor (BestBio, Shanghai, China). After the protein concentration was measured using a bicinchoninic acid (BCA) assay kit (Beyotime, Shanghai, China), samples were electrophoretically transferred to polyvinylidene difluoride (PVDF) membranes. After blocking with TTBS (0.5% Tween 20, 10 mM Tris-HCl, pH 7.5, 150 mM NaCl) containing 5% non-fat milk for 1 h at room temperature, the membrane was incubated with antibodies against β-Actin, CYP1A1, and CYP3A5 overnight at 4 °C. Then, membranes were washed with TBS (10 mM Tris-HCl, pH 7.5, 150 mM NaCl) containing 0.05% Tween 20 three times and further incubated with HRP-conjugated secondary antibodies against rabbit (for β-actin, CYP1A1 and CYP3A5) for 1 h at room temperature.

The target in series [4] is CYP3A5 (Homo sapiens, UniProt P20815). The series can be described thus: Enzyme kinetics of toddalolactone metabolism by recombinant CYP3A5. Particulars: P4 formation.
Experimental: The CYP reaction system (200 μL) consisted of 0.1 M potassium phosphate buffer (pH 7.4), an NADPH-generating system (1 mM NADPH, 10 mM G-6-P, 1 unit/mL G-6-PD, 4 mM MgCl2), and liver microsomes or recombinant human microsomes (supersomes). Each of the in vitro enzymatic assays using liver microsomes was linear with respect to incubation time and amount of protein. After a pre-incubation at 37 °C for 3 min, the reactions were initiated by adding NADP^+. After incubating for 60 min, the reactions were quenched by adding 200 μL of ice-cold acetonitrile. Samples were centrifuged at 18,000 g for 15 min at 4 °C and 10 μL of supernatant was analyzed using an HPLC system. NADPH or CYP enzyme sources were not used in the control group to ensure that the metabolic reactions were CYP- and NADPH-dependent. All incubation assays were completed in triplicate. The data are presented as mean ± standard deviation (SD).
The enzyme kinetics of toddalolactone in oxidative metabolism and glucuronidation were determined by incubating liver microsomes (0.2 mg/mL) or CYPs (15 nM) with different concentrations of toddalolactone (1–200 μM). The kinetic parameters including Km and Vmax were obtained by fitting the experimental data to the Michaelis–Menten equation (Equation (1)), biphasic kinetics equation (Equation (2)), or substrate inhibition equation (Equation (3)) (He et al. [2018]), and the results were graphically represented on Eadie–Hofstee plots. The in vitro intrinsic clearance (CLint) was calculated based on the Vmax/Km ratio. Metabolites were quantified using the standard curve for toddalolactone because of the absence of metabolite standards. All incubations were repeated in three independent experiments. Kinetic constants were expressed with mean ± SD: (1) V=Vmax×[S]/Km+[S] (2) V=Vmax1×[S]/Ks1+[S]+Vmax2×[S]/Ks2+[S] […]
[5] abbreviates: CYP incubation system, read-out: half-life value (T1/2).
Where [6] appears, read: UGT incubation system, read-out: T1/2 value.

Chain of CYP3A5 (Homo sapiens, UniProt P20815) (P20815 whole entry): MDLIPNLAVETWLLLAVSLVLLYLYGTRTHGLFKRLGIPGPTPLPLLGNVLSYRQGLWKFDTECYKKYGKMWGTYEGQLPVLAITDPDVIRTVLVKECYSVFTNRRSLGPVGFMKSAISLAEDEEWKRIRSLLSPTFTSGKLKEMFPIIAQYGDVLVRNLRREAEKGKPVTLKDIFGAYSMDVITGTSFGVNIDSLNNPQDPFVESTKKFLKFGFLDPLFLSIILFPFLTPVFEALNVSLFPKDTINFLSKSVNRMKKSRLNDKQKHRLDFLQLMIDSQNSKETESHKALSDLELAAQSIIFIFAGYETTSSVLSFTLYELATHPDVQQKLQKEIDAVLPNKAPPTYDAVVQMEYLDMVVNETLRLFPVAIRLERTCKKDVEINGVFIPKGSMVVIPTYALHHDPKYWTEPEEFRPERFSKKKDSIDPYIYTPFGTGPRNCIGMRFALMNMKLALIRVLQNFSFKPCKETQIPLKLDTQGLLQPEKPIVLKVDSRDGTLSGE

On to `COc1cc2oc(=O)ccc2c(OC)c1C[C@@H](O)C(C)(C)O` [toddalolactone], for which the half-life at 20 μM in series [1] (setting [5]) was 5.12 ± 0.467 h; in series [1] (setting [6]) it was 1.42 ± 0.0717 h; in series [2] (setting [5]), 4.08 h; in series [2] (setting [6]) it was 1.1 h. Further, the “protein expression of CYP3A5” value in series [3] is “did not show any significant change”. Further, in series [4] (recombinant CYP3A5 (15 nM)), the K m is given as 50.34 ± 8.62 µM. The CLint in series [4] (recombinant CYP3A5, Vmax/Km) was determined as 0.013 µL/min/nmol CYP.
